Measured values reported in PMC10419252, “Synthesis, Properties, and Biomedical Application of Dicationic Gemini Surfactants with Dodecane Spacer and Carbamate Fragments” (International Journal of Molecular Sciences, 2023).
In brackets after ≈: the same amount, converted by molar mass. Several values for one entry are separate records, joined by “and”; a condition that tells them apart may be missing. Equal entries are not always repeated. Where two headings read alike, the source gives them in different places.

How the values were obtained:
[1] = test system: Trichophyton mentagrophytes var. gypseum 1773; test: Antifungal activity (Tm); assay type: cell-based
Procedure: (§1) The antimicrobial activity of the compounds was tested on Gram-positive Staphylococcus aureus ATCC 6538P FDA 209P (Sa), Bacillus cereus ATCC 10702 NCTC 8035 (Bc), Enterococcus faecalis ATCC 29212 (Ef), and Gram-negative bacteria Escherichia coli ATCC 25922 (Ec), Pseudomonas aeruginosa ATCC 9027 (Pa), including methicillin-resistant strains of S. aureus MRSA-1 (resistant to fluoroquinolones and beta-lactams) and MRSA-2 (resistant to beta-lactams). Antifungal activity was studied against Candida albicans ATCC 10231 (Ca), Trichophyton mentagrophytes var. gypseum 1773 (Tm), and Aspergillus niger BKMF-1119 (An). A more detailed description of the experiment is published in [21].

[2] = biological target: T1, human acetylcholinesterase (hAChE) (Homo sapiens, UniProt P22303); test: biochemical
T1 construct: purchased Sigma-Aldrich
Procedure: (§2) Stock solutions (0.01 M) of the compounds were dissolved in H2O. The inhibitory activity of compounds against hAChE and hBChE was measured using Ellman’s method. Enzyme-catalyzed hydrolysis was carried out in 0.1 M PBS (pH = 8.0) containing 0.1 nM hAChE or hBChE, 0.1 mM 5,5′-dithiobis-(2-nitrobenzoic acid) and 1mM acetylthiocholine or butyrylthiocholine as substrates. The tested compounds were incubated with the enzyme for 5 min prior to the addition of the substrate. Analyses were performed at 298 K using a Shimadzu UV-1800 spectrophotometer (Shimadzu Co., Kyoto, Japan) at 412 nm. The substrate hydrolysis rate was measured within 2 min. A sample without inhibitor was used as a control (100% cholinesterase activity). A sample without substrate was used as a blank. The experiments were conducted in triplicate. The percentage of enzyme inhibition was determined using OriginPro 8.5 software (OriginLab Corporation, Northampton, MA, USA) by plotting a percentage of the inhibition versus compound concentration. IC50 values (inhibitor concentration required to inhibit enzyme activity by 50%) were determined by the Hill equation: E/Emax=[I]^n/IC50n+[I]^n, where E is enzyme activity in the presence of the compound, and [I] is the compound concentration.

[3] = test system: methicillin-resistant S. aureus MRSA-1 (resistant to fluoroquinolones and beta-lactams); test: Antimicrobial activity (MRSA-1); assay type: cell-based
Procedure: as §1

[4] = test system: Escherichia coli ATCC 25922; test: Antimicrobial activity (Ec); assay type: cell-based
Procedure: as §1

[5] = test system: methicillin-resistant S. aureus MRSA-2 (resistant to beta-lactams); test: Antimicrobial activity (MRSA-2); assay type: cell-based
Procedure: as §1

[6] = biological target: T2, human butyrylcholinesterase (hBChE) (Homo sapiens, UniProt P06276); test: In vitro cholinesterase inhibition, Ellman's method (hBChE); assay type: biochemical
T2 construct: purchased Sigma-Aldrich
Procedure: as §2

[7] = Indomethacin solubilization, spectrophotometry; assay type: physicochemical; settings: 298 K
Procedure: (§3) The cmc and the solubilizing capacity (S) of surfactants were determined using the spectral azo dye OOT and the non-steroidal anti-inflammatory drug IND. To obtain a saturated solution, an excess of OOT and IND was added to 2 mL of a surfactant solution, stirred, and kept for 48 and 24 h, respectively. After that, the solutions were filtered using Millex® Syringe Filters (Millipore, Burlington, MA, USA) with a pore size of 450 nm, and the optical density was measured. The absorption spectra were recorded on a Specord 250 Plus spectrophotometer (Analytik Jena AG, Jena, Germany). Quartz cells with a thickness of 1 and 0.5 cm (Hellma Analytics, Müllheim, Germany) were used for measurements.
(§4) The solubilizing capacity (S) was determined using the following formula:S = b/ε, where b is D/l = f (Csurf) dependency slope (above cmc), ε is the extinction coefficient (17,400 L/mol∙cm for OOT, and the extinction coefficients of IND are determined in GS solutions and presented in Figure S10).

[8] = test system: Enterococcus faecalis ATCC 29212; test: Antimicrobial activity (Ef); assay type: cell-based
Procedure: as §1

[9] = Orange OT solubilization, spectrophotometry (Schott method for Nagg); assay type: physicochemical
Procedure: as §3, §4
The OOT solubilization method (Schott method) was used to calculate the micelle Nagg. The Nagg values were calculated for each point on the curve of dependence of the OOT-reduced optical density on the surfactant concentration above the cmc according to the presented formula:[…], where ε is the extinction coefficient of OOT, Csurf is the surfactant concentration above cmc, and D is the optical density.

[10] = test system: Staphylococcus aureus ATCC 6538P FDA 209P; test: Antimicrobial activity (Sa); assay type: cell-based
Procedure: as §1

[11] = test system: Aspergillus niger BKMF-1119; test: Antifungal activity (An); assay type: cell-based
Procedure: as §1

[12] = test system: Candida albicans ATCC 10231; test: Antifungal activity (Ca); assay type: cell-based
Procedure: as §1

[13] = Pyrene fluorimetry; assay type: physicochemical; settings: 298 K
Procedure: To determine cmc by fluorimetry, a hydrophobic probe pyrene was added to a series of surfactant solutions at a concentration of 1 μM. The solutions were kept for 30–40 min for complete solubilization of the probe. The fluorescent emission spectra of pyrene were recorded on an F-7100 fluorimeter (Hitachi, Tokyo, Japan) using 10 × 4 mm quartz cuvette (Hellma Analytics, Müllheim, Germany) with the following settings: λex = 335 nm, λem = 350–600 nm, and scanning speed = 1200 nm/min. The cmc was calculated from the dependence of the pyrene polarity index (the ratio of the intensities of the first (373 nm) and third (383 nm) peaks) on the surfactant concentration.

[14] = Conductometry; assay type: physicochemical; settings: 298 K
Procedure: The electrical conductivity of the micellar solutions was determined on an InoLab Cond 7110 conductometer (WTW, Weilheim, Germany). For the experiment, surfactant solutions with a volume of 10 mL were prepared. The electrical conductivity of all solutions was recorded at 298 K, and the electrode was washed with purified water after each measurement. The cmc was determined from the breakpoint of the dependence of electrical conductivity on the concentration of surfactants.

[15] = Tensiometry (Du Nouy ring), surface tension isotherms; assay type: physicochemical
Procedure: The surface tension isotherms of the micellar solutions were determined using the Du Nouy platinum ring detachment method on a K6 tensiometer (KRŰSS GmbH, Hamburg, Germany). For the experiment, surfactant solutions with a volume of 10 mL were prepared. The measurements were carried out strictly at 298 K in glass beakers, the diameter of which exceeded the diameter of the platinum ring. Surface tension measurements were carried out until stable values were obtained. After each measurement, the ring was degreased in ethanol and thoroughly dried. The cmc of the micellar solutions was determined from the breakpoint on the isotherm of surface tension versus surfactant concentration. The thermodynamic parameters of adsorption and micellization were calculated for all systems based on the obtained tensiometric curves.

[16] = test system: Pseudomonas aeruginosa ATCC 9027; test: Antimicrobial activity (Pa); assay type: cell-based
Procedure: as §1

[17] = test system: Bacillus cereus ATCC 10702 NCTC 8035; test: Antimicrobial activity (Bc); assay type: cell-based
Procedure: as §1

[18] = alkyltrimethylammonium bromides; cited from earlier work
[19] = test system: methicillin-resistant S. aureus MRSA-1 (resistant to fluoroquinolones and beta-lactams); settings: cited from earlier work

T1 sequence (P22303 32-614): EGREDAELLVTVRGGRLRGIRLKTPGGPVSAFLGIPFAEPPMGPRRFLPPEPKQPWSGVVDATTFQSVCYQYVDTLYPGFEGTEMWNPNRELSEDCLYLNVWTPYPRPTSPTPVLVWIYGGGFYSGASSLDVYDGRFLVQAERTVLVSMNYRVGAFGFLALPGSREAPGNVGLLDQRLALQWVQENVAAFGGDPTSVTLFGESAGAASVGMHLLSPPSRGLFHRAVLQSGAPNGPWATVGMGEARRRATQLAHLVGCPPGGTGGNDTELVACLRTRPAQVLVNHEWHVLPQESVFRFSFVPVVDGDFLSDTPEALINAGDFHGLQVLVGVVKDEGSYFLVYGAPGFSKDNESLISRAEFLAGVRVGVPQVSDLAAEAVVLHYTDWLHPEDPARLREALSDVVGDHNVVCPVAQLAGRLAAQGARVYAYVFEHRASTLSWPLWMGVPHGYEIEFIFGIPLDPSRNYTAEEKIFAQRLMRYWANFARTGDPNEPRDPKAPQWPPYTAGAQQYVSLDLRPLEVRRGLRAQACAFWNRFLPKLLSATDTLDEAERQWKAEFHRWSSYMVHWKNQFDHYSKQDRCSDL
T2 sequence (P06276 29-602): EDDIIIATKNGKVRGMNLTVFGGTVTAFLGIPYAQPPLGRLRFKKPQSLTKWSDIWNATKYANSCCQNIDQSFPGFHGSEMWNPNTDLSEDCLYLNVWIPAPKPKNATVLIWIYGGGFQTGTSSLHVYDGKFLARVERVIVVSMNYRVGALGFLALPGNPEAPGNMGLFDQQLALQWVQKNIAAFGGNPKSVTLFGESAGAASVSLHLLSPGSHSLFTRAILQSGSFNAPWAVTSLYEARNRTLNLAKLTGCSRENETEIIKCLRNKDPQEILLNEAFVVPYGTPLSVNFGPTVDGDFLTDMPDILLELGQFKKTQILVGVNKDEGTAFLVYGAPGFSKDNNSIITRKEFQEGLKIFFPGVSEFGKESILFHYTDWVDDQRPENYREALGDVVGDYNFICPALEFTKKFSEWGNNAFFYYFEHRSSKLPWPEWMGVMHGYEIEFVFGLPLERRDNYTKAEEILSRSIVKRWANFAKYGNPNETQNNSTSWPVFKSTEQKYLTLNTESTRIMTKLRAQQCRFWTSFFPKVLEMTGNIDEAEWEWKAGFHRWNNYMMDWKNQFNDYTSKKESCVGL

In the case of `CCCCCCCCCC[N+](C)(CCCCCCCCCCCC[N+](C)(CCCCCCCCCC)CCOC(=O)NCC)CCOC(=O)NCC` (stereo not shown) [10-12-10(Et)], the “MFC, Tm” value [1] is reported as 15.6 ± 1.3 µg/mL, the “MIC, Tm” value [1] is reported as 0.9 ± 0.07 µg/mL and the IC50 [2] is reported as 43.1 ± 0.9 nM. For the same compound, the “SIhBChE/hAChE (selectivity index)” value ([2]; IC50 hBChE / IC50 hAChE) was 0.44, the “MBC, MRSA-1” value [3] was 1.9 ± 0.1 µg/mL and the “MIC, MRSA-1” value [3] was 0.5 µg/mL and 0.5 ± 0.03 µg/mL. For the same compound, the “MBC, Ec” value [4] was 0.5 ± 0.03 µg/mL, the “MIC, Ec” value [4] was 0.5 ± 0.03 µg/mL and the “MBC, MRSA-2” value [5] was 3.9 ± 0.3 µg/mL. For the same compound, the “MIC, MRSA-2” value [5] was 0.5 µg/mL and 0.5 ± 0.03 µg/mL, the IC50 [6] was 19 ± 5 nM and the “S (solubilizing capacity), IND” value [7] was 0.13 molprobe/molGS. For the same compound, the “MBC, Ef” value [8] was 0.5 ± 0.04 µg/mL, the “MIC, Ef” value [8] was 0.5 ± 0.03 µg/mL and the “S (solubilizing capacity), OOT” value [9] was 0.021 molOOT/molGS. The “S (solubilizing capacity), OOT” value ([9]; 298 K) was 0.021 molprobe/molGS, the “cmc, Spectrophotometry” value ([9]; OOT, 298 K) was 1.5 ± 0.1 mM and the “Nagg (aggregation number)” value ([9]; Schott approach, OOT solubilization, 298 K) was 50. For the same compound, the “MBC, Sa” value [10] was 0.5 ± 0.04 µg/mL, the “MIC, Sa” value [10] was 0.5 ± 0.03 µg/mL and the “MFC, An” value [11] was >250 µg/mL. For the same compound, the “MIC, An” value [11] was 250 ± 19 µg/mL, the “MFC, Ca” value [12] was 15.6 ± 1.2 µg/mL and the “MIC, Ca” value [12] was 0.9 ± 0.07 µg/mL. For the same compound, the “cmc, Fluorimetry” value [13] was 0.9 mM and 0.9 ± 0.03 mM, the cmccond [14] was 1.5 mM and 1.5 ± 0.04 mM and the “βcond (degree of counterion binding)” value [14] was 0.41. The “Amin (surface area per surfactant molecule)” value ([15]; 298 K) was 2.34 nm^2, the “Гmax∙10^6 (maximum surface excess)” value ([15]; 298 K) was 0.71 mol∙m^−2 and the “∆Gmic (free energy of micellization)” value ([15]; 298 K) was -6.09 kcal/mol. The “calculated adsorption layer thickness” value ([15]; air/water interface) was 0.7 nm, the cmctens ([15]; tensiometry, 298 K) was 1 mM and 1 ± 0.03 mM and the “MBC, Pa” value [16] was 3.9 ± 0.3 µg/mL. For the same compound, the “MIC, Pa” value [16] was 1.9 ± 0.1 µg/mL, the “MBC, Bc” value [17] was 0.5 ± 0.03 µg/mL and the “MIC, Bc” value [17] was 0.5 ± 0.04 µg/mL.

For `CCCCCCCCCCCC[N+](C)(C)C.[Br-]` [C12TAB], the Nagg [18] is listed as 55.

For `CCCCCCCCCCCCCC[N+](C)(C)C.[Br-]` [C14TAB], the Nagg [18] is given as 70.

In the case of `CCCCCCCCCCCCCCCC[N+](C)(C)C.[Br-]` [C16TAB], the Nagg [18] is listed as 89.

In the case of `O=C(O)c1cn(C2CC2)c2cc(N3CCNCC3)c(F)cc2c1=O` [Ciprofloxacin], the “effectiveness toward MRSA-1 compared with 10-12-10(Et)” value [19] is given as “two orders of magnitude less effective”.

With `CC(=O)N1CCN(c2ccc(OCC3COC(Cn4ccnc4)(c4ccc(Cl)cc4Cl)O3)cc2)CC1` (stereo not shown) [Ketoconazole, reference compound] the MFC ([1]; Trichophyton mentagrophytes, read-out: MFC, Tm) was 3.9 ± 0.3 µg/mL (≈ 7.34 µM), the MIC ([1]; Trichophyton mentagrophytes, read-out: MIC, Tm) was 3.9 ± 0.3 µg/mL (≈ 7.34 µM) and the MFC ([11]; Aspergillus niger, BKMF1119, read-out: MFC, An) was 125 ± 10 µg/mL (≈ 235 µM). For the same compound, the MIC ([11]; Aspergillus niger, BKMF1119, read-out: MIC, An) was 15.6 ± 1.3 µg/mL (≈ 29.4 µM), the MFC ([12]; Candida albicans, ATCC10231, read-out: MFC, Ca) was 3.9 ± 0.3 µg/mL (≈ 7.34 µM) and the MIC ([12]; Candida albicans, ATCC10231, read-out: MIC, Ca) was 3.9 ± 0.3 µg/mL (≈ 7.34 µM).
